Assay results as given in patent US20130244999A1, “Substituted Heterocyclic Compounds” (Incyte Corporation, priority 2008, published 2013).

The compounds below were run against T1, histamine H4 receptor (Homo sapiens, UniProt Q9H3N8) (assay: Inhibition of histamine H4 receptor (Table A1; H4 membrane binding assay)). Conditions: not given.
T1 construct: expressed in transfected cells; host or cells: HEK293SFM cells (membrane preparation)
Method: Recombinant HEK293SFM cells expressing human H1, H2, H3, H4 or mouse H4 were harvested (Packard Filtermate Harvester) in ice-cold Tris-HCl, (50 mM, pH 7.5, Sigma) with protease inhibitors (Roche) and homogenized with a Polytron homogenizer. The homogenate was centrifuged for 5 minutes at 1000 g to remove nuclei and unbroken cells. The supernatant was centrifuged at 50000 g for 30 minutes, and the resulting pellet was re-suspended in ice-cold Tris-HCl (50 mM, pH 7.5). […] Nonspecific binding was determined by inclusion of 1000× unlabeled ligands. The bound radioactivity was separated by filtration through polyethyleneimine-treated GF/B filters (Perkin Elmer). The filters were washed eight times with ice-cold Tris-HCl (50 mM, pH 7.5), and radioactivity retained on the filters was measured by liquid scintillation counting. The binding data were evaluated with Prism. […]

| inhibition at 1 µM | SMILES |
| --- | --- |
| 52% | CC1Cc2ccc(-c3ccn(CCO)n3)cc2CN1c1cc(N2CCN(C)CC2)nc(N)n1 (single isomer, unassigned) [Example 84B, 2-(3-{2-[2-Amino-6-(4-methylpiperazin-1-yl)pyrimidin-4-yl]-3-methyl-1,2,3,4-tetrahydroisoquinolin-7-yl}-1H-pyrazol-1-yl)ethanol] |
| 69% | CNC(=O)c1cc(-c2ccc3c(c2)CN(c2cc(N4CCN(C)CC4)nc(N)n2)C(C)C3)cn1C (single isomer, unassigned) [Example 87B, 4-{2-[2-Amino-6-(4-methylpiperazin-1-yl)pyrimidin-4-yl]-3-methyl-1,2,3,4-tetrahydroisoquinolin-7-yl}-N,1-dimethyl-1H-pyrrole-2-carboxamide] |
| 74% | CCNC(=O)c1cc(-c2ccc3c(c2)CN(c2cc(N4CCN(C)CC4)nc(N)n2)C(C)C3)cn1C (single isomer, unassigned) [Example 88B, 4-{2-[2-Amino-6-(4-methylpiperazin-1-yl)pyrimidin-4-yl]-3-methyl-1,2,3,4-tetrahydroisoquinolin-7-yl}-N-ethyl-1-methyl-1H-pyrrole-2-carboxamide] |
| 67% | CC1Cc2ccc(-c3cc(C(=O)N(C)C)n(C)c3)cc2CN1c1cc(N2CCN(C)CC2)nc(N)n1 (single isomer, unassigned) [Example 89B, 4-{2-[2-Amino-6-(4-methylpiperazin-1-yl)pyrimidin-4-yl]-3-methyl-1,2,3,4-tetrahydroisoquinolin-7-yl}-N,1N,1-trimethyl-1H-pyrrole-2-carboxamide] |
| 72% | CC(C)NC(=O)c1cc(-c2ccc3c(c2)CN(c2cc(N4CCN(C)CC4)nc(N)n2)C(C)C3)cn1C (single isomer, unassigned) [Example 90B, 4-{2-[2-Amino-6-(4-methylpiperazin-1-yl)pyrimidin-4-yl]-3-methyl-1,2,3,4-tetrahydroisoquinolin-7-yl}-N-isopropyl-1-methyl-1H-pyrrole-2-carboxamide] |
| 76% | CC1Cc2ccc(-c3cc(C(=O)NC4CC4)n(C)c3)cc2CN1c1cc(N2CCN(C)CC2)nc(N)n1 (single isomer, unassigned) [Example 91B, 4-{2-[2-Amino-6-(4-methylpiperazin-1-yl)pyrimidin-4-yl]-3-methyl-1,2,3,4-tetrahydroisoquinolin-7-yl}-N-cyclopropyl-1-methyl-1H-pyrrole-2-carboxamide] |

Same assay, conditions: histamine H4 receptor; "> a" = exceeds experiment limit

| IC50 | SMILES |
| --- | --- |
| 25 nM | CC1Cc2ccc(-c3cc(C(=O)N4CCC4)n(C)c3)cc2CN1c1cc(N2CCN(C)CC2)nc(N)n1 (single isomer, unassigned) [Example 92A, 4-[7-[5-(azetidin-1-ylcarbonyl)-1-methyl-1H-pyrrol-3-yl]-3-methyl-3,4-dihydroisoquinolin-2(1H)-yl]-6-(4-methylpiperazin-1-yl)pyrimidin-2-amine] |
| 127 nM | CC1Cc2ccc(-c3cc(C(=O)N4CCC4)n(C)c3)cc2CN1c1cc(N2CCN(C)CC2)nc(N)n1 (single isomer, unassigned) [Example 92B, 4-[7-[5-(azetidin-1-ylcarbonyl)-1-methyl-1H-pyrrol-3-yl]-3-methyl-3,4-dihydroisoquinolin-2(1H)-yl]-6-(4-methylpiperazin-1-yl)pyrimidin-2-amine] |
| 24 nM | CC1Cc2ccc(-c3cc(C(=O)N(C)CCN(C)C)n(C)c3)cc2CN1c1cc(N2CCN(C)CC2)nc(N)n1 (single isomer, unassigned) [Example 93, 4-{2-[2-Amino-6-(4-methylpiperazin-1-yl)pyrimidin-4-yl]-3-methyl-1,2,3,4-tetrahydroisoquinolin-7-yl}-N-[2-(dimethylamino)ethyl]-N,1-dimethyl-1H-pyrrole-2-carboxamide] |
| 30 nM | CC1Cc2ccc(-c3cc(C(=O)N4CCC(N(C)C)C4)n(C)c3)cc2CN1c1cc(N2CCN(C)CC2)nc(N)n1 (single isomer, unassigned) [Example 94, 4-[7-(5-{[3-(Dimethylamino)pyrrolidin-1-yl]carbonyl}-1-methyl-1H-pyrrol-3-yl)-3-methyl-3,4-dihydroisoquinolin-2(1H)-yl]-6-(4-methylpiperazin-1-yl)pyrimidin-2-amine] |
| 35 nM | CC1Cc2ccc(-c3cnn(C4CCOCC4)c3)cc2CN1c1cc(N2CCN(C)CC2)nc(N)n1 (single isomer, unassigned) [Example 95A, 4-(4-methylpiperazin-1-yl)-6-[3-methyl-7-[1-(tetrahydro-2H-pyran-4-yl)-1H-pyrazol-4-yl]-3,4-dihydroisoquinolin-2(1H)-yl]pyrimidin-2-amine] |
| 26 nM | CC1Cc2ccc(-c3cnn(CCC#N)c3)cc2CN1c1cc(N2CCN(C)CC2)nc(N)n1 (single isomer, unassigned) [Example 96A, 3-(4-{2-[2-amino-6-(4-methylpiperazin-1-yl)pyrimidin-4-yl]-3-methyl-1,2,3,4-tetrahydroisoquinolin-7-yl}-1H-pyrazol-1-yl)propanenitrile] |
| 352 nM | CC1Cc2ccc(-c3cnn(CCC#N)c3)cc2CN1c1cc(N2CCN(C)CC2)nc(N)n1 (single isomer, unassigned) [Example 96B, 3-(4-{2-[2-Amino-6-(4-methylpiperazin-1-yl)pyrimidin-4-yl]-3-methyl-1,2,3,4-tetrahydroisoquinolin-7-yl}-1H-pyrazol-1-yl)propanenitrile] |
| 44 nM | CC1Cc2ccc(-c3cnn(CC4(C#N)CC4)c3)cc2CN1c1cc(N2CCN(C)CC2)nc(N)n1 (single isomer, unassigned) [Example 97A, 1-[(4-{2-[2-amino-6-(4-methylpiperazin-1-yl)pyrimidin-4-yl]-3-methyl-1,2,3,4-tetrahydroisoquinolin-7-yl}-1H-pyrazol-1-yl)methyl]cyclopropanecarbonitrile] |

More lines, now with the values behind:

| SMILES | IC50 |
| --- | --- |
| CC1Cc2ccc(-c3ccn(CCO)n3)cc2CN1c1cc(N2CCN(C)CC2)nc(N)n1 (single isomer, unassigned) [Example 84A, 2-(3-{2-[2-Amino-6-(4-methylpiperazin-1-yl)pyrimidin-4-yl]-3-methyl-1,2,3,4-tetrahydroisoquinolin-7-yl}-1H-pyrazol-1-yl)ethanol] | 30 nM |
| CC1Cc2ccc(-c3ccn(C)n3)cc2CN1c1cc(N2CCN(C)CC2)nc(N)n1 (single isomer, unassigned) [Example 85A, 4-[3-Methyl-7-(1-methyl-1H-pyrazol-3-yl)-3,4-dihydroisoquinolin-2(1H)-yl]-6-(4-methylpiperazin-1-yl)pyrimidin-2-amine] | 20 nM |
| CC1Cc2ccc(-c3ccn(C)n3)cc2CN1c1cc(N2CCN(C)CC2)nc(N)n1 (single isomer, unassigned) [Example 85B, 4-[3-Methyl-7-(1-methyl-1H-pyrazol-3-yl)-3,4-dihydroisoquinolin-2(1H)-yl]-6-(4-methylpiperazin-1-yl)pyrimidin-2-amine] | 104 nM |
| CCn1ccc(-c2ccc3c(c2)CN(c2cc(N4CCN(C)CC4)nc(N)n2)C(C)C3)n1 (single isomer, unassigned) [Example 86A, 4-[7-(1-Ethyl-1H-pyrazol-3-yl)-3-methyl-3,4-dihydroisoquinolin-2(1H)-yl]-6-(4-methylpiperazin-1-yl)pyrimidin-2-amine] | 40 nM |
| CCn1ccc(-c2ccc3c(c2)CN(c2cc(N4CCN(C)CC4)nc(N)n2)C(C)C3)n1 (single isomer, unassigned) [Example 86B, 4-[7-(1-Ethyl-1H-pyrazol-3-yl)-3-methyl-3,4-dihydroisoquinolin-2(1H)-yl]-6-(4-methylpiperazin-1-yl)pyrimidin-2-amine] | 231 nM |
| CNC(=O)c1cc(-c2ccc3c(c2)CN(c2cc(N4CCN(C)CC4)nc(N)n2)C(C)C3)cn1C (single isomer, unassigned) [Example 87A, 4-{2-[2-Amino-6-(4-methylpiperazin-1-yl)pyrimidin-4-yl]-3-methyl-1,2,3,4-tetrahydroisoquinolin-7-yl}-N,1-dimethyl-1H-pyrrole-2-carboxamide] | 26 nM |
| CCNC(=O)c1cc(-c2ccc3c(c2)CN(c2cc(N4CCN(C)CC4)nc(N)n2)C(C)C3)cn1C (single isomer, unassigned) [Example 88A, 4-{2-[2-Amino-6-(4-methylpiperazin-1-yl)pyrimidin-4-yl]-3-methyl-1,2,3,4-tetrahydroisoquinolin-7-yl}-N-ethyl-1-methyl-1H-pyrrole-2-carboxamide] | 25 nM |
| CC1Cc2ccc(-c3cc(C(=O)N(C)C)n(C)c3)cc2CN1c1cc(N2CCN(C)CC2)nc(N)n1 (single isomer, unassigned) [Example 89A, 4-{2-[2-Amino-6-(4-methylpiperazin-1-yl)pyrimidin-4-yl]-3-methyl-1,2,3,4-tetrahydroisoquinolin-7-yl}-N,1N,1-trimethyl-1H-pyrrole-2-carboxamide] | 26 nM |
| CC(C)NC(=O)c1cc(-c2ccc3c(c2)CN(c2cc(N4CCN(C)CC4)nc(N)n2)C(C)C3)cn1C (single isomer, unassigned) [Example 90A, 4-{2-[2-Amino-6-(4-methylpiperazin-1-yl)pyrimidin-4-yl]-3-methyl-1,2,3,4-tetrahydroisoquinolin-7-yl}-N-isopropyl-1-methyl-1H-pyrrole-2-carboxamide] | 66 nM |
| CC1Cc2ccc(-c3cc(C(=O)NC4CC4)n(C)c3)cc2CN1c1cc(N2CCN(C)CC2)nc(N)n1 (single isomer, unassigned) [Example 91A, 4-{2-[2-Amino-6-(4-methylpiperazin-1-yl)pyrimidin-4-yl]-3-methyl-1,2,3,4-tetrahydroisoquinolin-7-yl}-N-cyclopropyl-1-methyl-1H-pyrrole-2-carboxamide] | 49 nM |
